{"source": "patent US10729643B2", "about": "“Methods for administration and methods for treating cardiovascular diseases with resiniferatoxin” (priority 2013, dated 2020)", "key": {"[1]": {"test_system": "sham and CHF rats (coronary artery ligation)", "assay": "Hemodynamic, morphological and echocardiographic measurements in sham and CHF rats", "type": "in vivo, rat", "details": "for DAP: diastolic arterial pressure; for HR: heart rate; for HW/BW: heart weight/body weight; for LVEDP: left ventricle end-diastolic pressure; for MAP: mean arterial pressure; for SAP: systolic arterial pressure; for WLW/BW: wet lung weight/body weight", "protocol": "In order to desensitize cardiac sympathetic afferents in rats, resiniferatoxin (RTX, 1 mg; Sigma Aldrich) was dissolved in 2 ml of ethanol and mixed with 18 ml of Tween in isotonic saline. RTX (50 μg/ml) was applied twice on the entire left and right ventricles with a swab just prior to coronary ligation. The dose of RTX was determined by preliminary experiments in which we found nearly complete ablation of TRPV1-expressing cardiac nerve endings on the surface of the rat heart for more than 10 weeks. Rat surgery was performed 9-11 weeks post-MI. Rats were anesthetized with urethane (800 mg/kg ip) and α-chloralose (40 mg/kg ip). Renal sympathetic nerve activity (RSNA) and cardiac sympathetic nerve activity (CSNA) were recorded for evaluating basal renal and cardiac sympathetic tone.\nMore specifically, we examined TRPV1 protein expression in cardiac nerve endings from vehicle and RTX-treated rats using immunofluorescence. Experiments were performed on male Sprague-Dawley rats weighing […]. In brief, terminal experiments were carried out 9-11 weeks after MI in rats treated with either RTX or vehicle. These experiments were approved by the Institutional Animal Care and Use Committee of the University of Nebraska Medical Center and carried out under the guidelines of the National Institutes of Health Guide for the Care and Use of Laboratory Animals. Heart failure was produced by coronary artery ligation as described in (Wang et al., J. Appl. Physiol. 2010; 108:1365-1375; and Wang et al. 2, Am. J. Physiol. Regul. Integr. Comp. Physiol. 2012; 320:R1260-R1270). Cardiac function in all experimental animals was measured 2 and 6 weeks after MI by echocardiography (VEVO 770, Visual Sonics, Inc.) as described in (Wang et al., J. Appl. Physiol. 2010; 108:1365-1375; Wang et al. 2, Am. J. Physiol. Regul. Integr. Comp. Physiol. 2012; 320:R1260-R1270; and Wang et al. 3, J. Physiol. 2010; 588:5033-5047).\nThis example illustrates an effect of RTX on body weight, organ weight, and hemodynamics in sham and CHF rats."}, "post MI rats": {"test_system": "post MI rats", "assay": "Long-term survival of post MI rats", "type": "in vivo, rat", "excerpt": "This example illustrates effects of RTX on the long-term survival rate of post MI rats. […] Over a 6 month period over 50% of vehicle—treated rats died. This contrasts with under 20% of RTX treated—rats."}, "sham and CHF rats": {"test_system": "sham and CHF rats", "assay": "Basal sympathetic tone (RSNA, CSNA, urinary NE) and arterial baroreflex function"}, "[2]": {"test_system": "non-infarcted LV and IVS walls of sham and CHF rats", "assay": "Cardiac fibrosis: picrosirius red staining and western blot of fibrotic markers", "type": "in vivo, rat", "excerpt": "This example illustrates the effects of RTX on cardiac fibrosis in sham and CHF rats. Considering that RTX-mediated reduction in LVEDP in CHF rats may be related to an improvement in cardiac compliance, we further evaluated cardiac fibrosis using picrosirus red staining and protein expression of two fibrotic markers (a smooth muscle actin and fibronectin) as well as their upstream activator, transforming growth factor (TGF) β receptor I in the non-infarcted LV and inter-ventricular septum (IVS) walls from sham and CHF rats treated with either vehicle or RTX. For histopathology, the rat heart was fixed in 10% phosphate buffered formalin, embedded in paraffin, and cut into 10 μm serial sections from apex to base. Picrosirius red staining was performed to detect myocardial fibrosis. Immunohistochemistry staining of cleaved caspase 3 (CC3) was also performed in paraffin sections from the same heart tissues which were used for picrosirius red staining experiments."}, "rats": {"test_system": "rats", "details": "subcutaneous and epidural administration; cited from earlier work"}}}
{"molecule": "C=C(C)[C@]12C[C@@H](C)[C@@]34O[C@](Cc5ccccc5)(O[C@@H]1[C@@H]3C=C(COC(=O)Cc1ccc(O)c(OC)c1)C[C@]1(O)C(=O)C(C)=C[C@@H]41)O2", "note": "[RTX, resiniferatoxin]", "values": [{"measurement": "difference in ejection fraction or fractional shortening", "setting": "[1]; 2 weeks and 6 weeks after MI, CHF+RTX vs CHF+vehicle", "result": "no significant difference"}, {"measurement": "DAP", "setting": "[1]; CHF + RTX (n = 25), mean ± SE", "result": "90.8 ± 2.2", "unit": "mmHg"}, {"measurement": "Heart weight", "setting": "[1]; CHF + RTX (n = 25), epicardial RTX 50 μg/ml at coronary ligation, 9-11 weeks post-MI, mean ± SE", "result": "1650 ± 49", "unit": "mg"}, {"measurement": "HR", "setting": "[1]; CHF + RTX (n = 25), mean ± SE", "result": "348.3 ± 5.5", "unit": "bpm"}, {"measurement": "HW/BW", "setting": "[1]; CHF + RTX (n = 25), mean ± SE", "result": "3.8 ± 0.1", "unit": "mg/g"}, {"measurement": "LVEDP", "setting": "[1]; CHF + RTX (n = 25), mean ± SE", "result": "8.3 ± 0.7", "unit": "mmHg"}, {"measurement": "MAP", "setting": "[1]; CHF + RTX (n = 25), mean ± SE", "result": "101.3 ± 2.1", "unit": "mmHg"}, {"measurement": "Infarct size", "setting": "[1]; CHF + RTX (n = 25), mean ± SE", "result": "39.1 ± 1.2", "unit": "%"}, {"measurement": "dp/dtmax", "setting": "[1]; CHF + RTX (n = 25), mean ± SE", "result": "5446 ± 173"}, {"measurement": "dp/dtmin", "setting": "[1]; CHF + RTX (n = 25), mean ± SE", "result": "−4643 ± 149"}, {"measurement": "SAP", "setting": "[1]; CHF + RTX (n = 25), mean ± SE", "result": "120.8 ± 2.3", "unit": "mmHg"}, {"measurement": "WLW/BW", "setting": "[1]; CHF + RTX (n = 25), mean ± SE", "result": "5.1 ± 0.2", "unit": "mg/g"}, {"measurement": "MI-induced cardiac dilation (LV systolic and diastolic diameters and volumes)", "setting": "[1]; CHF rats, echocardiography", "result": "significantly reduced"}, {"measurement": "increased LVEDP observed in CHF+vehicle rats", "setting": "[1]; CHF+RTX rats", "result": "largely prevented"}, {"measurement": "decreased protein expression of in myocardium", "setting": "[1]; CHF+RTX rats, western blot", "result": "partially reversed"}, {"measurement": "blunted dp/dtmin", "setting": "[1]; CHF+RTX vs CHF+vehicle rats", "result": "significantly increased"}, {"measurement": "difference in dp/dtmax at rest", "setting": "[1]; CHF+RTX vs CHF+vehicle rats", "result": "no significant difference"}, {"measurement": "dp/dtmax response to isoproterenol (ISO) stimulation", "setting": "[1]; CHF+RTX vs CHF+vehicle rats", "result": "significantly greater"}, {"measurement": "heart weight and lung weight-to-body weight ratios", "setting": "[1]; CHF+RTX vs CHF+vehicle rats", "result": "significant decrease"}, {"measurement": "difference in infarct size", "setting": "[1]; CHF+vehicle vs CHF+RTX rats", "result": "no significant difference"}, {"measurement": "ejection fraction decrease", "setting": "[1]; RTX treated rats (summary)", "result": "less"}, {"measurement": "Infarct size", "setting": "[1]; Sham + RTX (n = 20)", "result": 0, "unit": "%"}, {"measurement": "DAP", "setting": "[1]; Sham + RTX (n = 20), mean ± SE", "result": "92.8 ± 3.2", "unit": "mmHg"}, {"measurement": "Heart weight", "setting": "[1]; Sham + RTX (n = 20), epicardial RTX 50 μg/ml, 9-11 weeks, mean ± SE", "result": "1430 ± 30", "unit": "mg"}, {"measurement": "HR", "setting": "[1]; Sham + RTX (n = 20), mean ± SE", "result": "362.0 ± 6.8", "unit": "bpm"}, {"measurement": "HW/BW", "setting": "[1]; Sham + RTX (n = 20), mean ± SE", "result": "3.3 ± 0.1", "unit": "mg/g"}, {"measurement": "LVEDP", "setting": "[1]; Sham + RTX (n = 20), mean ± SE", "result": "4.8 ± 0.4", "unit": "mmHg"}, {"measurement": "MAP", "setting": "[1]; Sham + RTX (n = 20), mean ± SE", "result": "105.0 ± 3.1", "unit": "mmHg"}, {"measurement": "dp/dtmax", "setting": "[1]; Sham + RTX (n = 20), mean ± SE", "result": "8601 ± 224"}, {"measurement": "dp/dtmin", "setting": "[1]; Sham + RTX (n = 20), mean ± SE", "result": "−8088 ± 196"}, {"measurement": "SAP", "setting": "[1]; Sham + RTX (n = 20), mean ± SE", "result": "128.8 ± 2.8", "unit": "mmHg"}, {"measurement": "WLW/BW", "setting": "[1]; Sham + RTX (n = 20), mean ± SE", "result": "4.5 ± 0.1", "unit": "mg/g"}, {"measurement": "differences in cardiac morphological, echocardiographic or hemodynamic parameters", "setting": "[1]; sham+vehicle vs sham+RTX rats", "result": "no significant differences"}, {"measurement": "long-term (6 months) survival rates", "setting": "post MI rats; CHF rats, epicardial RTX 50 μg/ml at the time of coronary ligation", "result": "markedly improved"}, {"measurement": "rats that died over a 6 month period", "setting": "post MI rats; RTX treated post MI rats (vehicle: over 50%)", "result": "under 20%"}, {"measurement": "average slope and Gainmax of arterial baroreflex control of HR and RSNA", "setting": "sham and CHF rats; CHF rats", "result": "significantly increased"}, {"measurement": "basal RSNA and CSNA", "setting": "sham and CHF rats; CHF rats", "result": "lowered"}, {"measurement": "minimum HR and RSNA of arterial baroreflex control", "setting": "sham and CHF rats; CHF rats", "result": "decreased"}, {"measurement": "urinary NE excretion", "setting": "sham and CHF rats; CHF+RTX vs vehicle treated rats", "result": "significantly reduced"}, {"measurement": "average slope, Gainmax, and minimum RSNA or HR of arterial baroreflex control", "setting": "sham and CHF rats; sham rats", "result": "no significant effects"}, {"measurement": "picrosirus red staining, alpha smooth muscle actin, fibronectin and TGF β receptor I expression", "setting": "[2]; CHF rats", "result": "reduced"}, {"measurement": "picrosirus red staining, fibrotic markers and TGF β receptor I", "setting": "[2]; sham rats", "result": "did not cause any significant change"}, {"measurement": "duration of thermal analgesia with no restoration of pain sensitivity", "setting": "rats", "result": "over 7 days"}]}
